Assay results as given in patent US12594271B2, “Combination therapy for cancer” (Health Research, Inc., priority 2019, dated 2026).
Entries after “also recorded” stand apart in the source; their conditions may differ.

Key:
4T1 tumors cells = experiment: 4T1 orthotopic mammary tumor model: tumor growth and spontaneous lung metastases; assay type: in vivo, mice; conditions: BRQ 10 mg/kg i.p. daily
Description: FIG. 1. […] (A) 4T1 growth in mice treated daily with BRQ (10 mg/kg, i.p.), anti-PD-1 ([…], i.p. at the indicated 3 or 4 times) or both agents. n=5 mice/group/experiment for upper and lower graphs; *P<0.01 against single-agent treatments. B-D, data shown are for analysis of A, upper graph. (B) Spontaneous metastatic lung counts; *P<0.01. Similar patterns seen in the 2nd experiment (avg. #mets): vehicle=12; BRQ=1; αPD-1=5; combo=1. (C) Splenic granulocytic (CD11b^+Ly6C^loLy6G^+) or monocytic (CD11b^+Ly6C^hiLy6G^−) numbers in non-tumor-bearing (NTB) or tumor-bearing mice were converted to a ratio for group-by-group comparison; *P<0.03. (D) Splenic CD3^+ T cell numbers in tumor-bearing mice. (E) Splenic CD8^+ T cells in A (lower graph) were assayed based on differential expression of CD44:naïve ([…]) vs. effector/central memory (hi) phenotypes. *P<0.03. Data reported as a ratio to indicate a rising memory pool. […]
Treatment of Tumor-Bearing Mice Alters Surface Phenotype of Myeloid Cells. […] Female BALB/c or C57BL/6 mice were orthotopically implanted with 4T1 or AT-3 mammary tumor cells, respectively, and were monitored 3 times weekly for tumor growth. […]
Effect of Treatment of Tumor-Bearing Mice with BRQ on the Efficacy of Anti-Tumor Immunotherapy. […] At endpoint, BM cells or spleens were collected and analyzed for the indicated populations by flow cytometry. […]

IRF8 = experiment: qRT-PCR in Lin- BM cells cultured 2 days; assay type: cell-based, mouse; conditions: bone marrow cells cultured with BRQ, normalized to vehicle
Description: (§1) FIG. 2. […] (A) MDSCs were produced in vitro from mouse bone marrow cells using GM-CSF and G-CSF±BRQ (1 μM) or ATRA (10 μM) at the start of the 4-day culture. Cells tested for their ability to inhibit T cell proliferation (1:1 ratio), as in FIG. 5. Fresh BM=Uncultured bone marrow cells. (B) Similar to A, except that uridine (200 μM) was added to rescue the effect of BRQ. (C) Expression of IRF8 (upper) or SLFN4 (lower) was analyzed by qRT-PCR in Lin^− BM cells cultured as in A for 2 days. Data normalized to the vehicle.

SLFN4 = experiment: qRT-PCR in Lin- BM cells cultured 2 days; assay type: cell-based, mouse; conditions: bone marrow cells cultured with BRQ, normalized to vehicle
Description: as §1

E0771 = E0771 mammary tumor model: bone marrow multi-spectral flow cytometry; assay type: in vivo; conditions: endpoint
Description: BRQ Alters the Bone Marrow Myeloid Compartment in Triple Negative Breast Cancer Model. This study was performed in another mammary tumor model, termed E0771. The experimental design is as described in FIG. 12 and bone marrow cells were collected at endpoint, as in FIG. 19 for flow cytometric analysis. Here, BM samples were analyzed by multi-spectral high dimensional flow cytometry using a Cytek Aurora Spectral Flow Cytometer and the data are illustrated as a TSNE plot (i.e, t-distributed Stochastic Neighbor). Circled regions refer to the data of interest.

Cc1c(-c2ccc(-c3ccccc3F)cc2)nc2ccc(F)cc2c1C(=O)O [BRQ, 6-Fluoro-2-(2′-fluoro-[1,1′-biphenyl]-4-yl)-3-methylquinoline-4-carboxylic acid]
Spontaneous metastatic lung counts (avg. #mets) (4T1 tumors cells; 2nd experiment, anti-PD-1 200 μs i.p. 3 or 4 times, endpoint): 1 | 4T1 tumor growth (4T1 tumors cells; BALB/c mice, anti-PD-1 200 μg i.p.): little effect on tumor growth; also recorded: only a nominal effect on primary tumor growth | IRF8 expression (IRF8): increase in IRF8 expression | SLFN4 expression (SLFN4): reciprocal decrease in SLFN4 expression | frequency of granulocyte progenitors (GPs) in bone marrow (E0771): reduced the frequency of granulocyte progenitors | frequency of monocyte progenitors (MPs) in bone marrow (E0771): increased the frequency of monocyte progenitors
